Data: paper PMC11645267, “Novel pharmacologic inhibition of lysine-specific demethylase 1 as a potential therapeutic for glioblastoma” (Cancer Gene Therapy, 2024)
Where two headings read alike, the source gives them in different places.

Experiments:
KINGS1 = assay: Western blot of global histone modifications; format: cell-based; conditions: KINGS1, 5 μM, 96 h
Description: The effects of S2172 on global histone modifications in GSCs were examined using western blot analysis. GSC cells were treated with 5 μM of S2172 since […] of the cells are still viable at this concentration (Fig. 2, Supplementary Fig. S1E). […] Treatment of GSCs with S2172 increased the overall levels of H3K4me2 as well as H3K9me2. However, these changes were not statistically significant (Fig. 2A, B). […]
instructions. For GSC cells, the CellTiter-Glo 3D Viability Assay (Promega, Madison, WI, USA) was used to measure the living cells. All proliferation experiments were repeated […]
The density of bands was quantified using ImageJ software (https://imagej.nih.gov/ij/). […]
When mice were scanned with MRI, mice were anesthetized with isoflurane (3% in air) and placed in MRS 3017 Benchtop MRI Systems (MR Solutions, Guildford, UK). Using MRI images, tumor volumes were obtained by compiling tumor areas from all slices that contained tumors and calculated by ImageJ software (https://imagej.nih.gov/ij/) {Towner, […]
B. Western blot analysis of LSD1,MYC, Nestin, SOX2,and ACTB in same cells as shown in panel A. ACTB was used as a loading control. […] Quantification of signal intensities of the Western blot (right panel). […] Right panel: Quantification of band signal intensities from the Western blot. […]

[1] = Pharmacokinetic analysis, plasma and brain levels; format: in vivo; conditions: male, Crl:CD1 (ICR), mouse, ip, ICR mice, n = 3
Description: Male Crl:CD1 (ICR) mice from […], Japan (8 weeks old, n = 3) received a single intraperitoneal injection of S2172 at 30 mg/kg in 5 mL/kg of 15% DMSO/17.5% Cremophor EL/8.75% Ethanol/8.75% HCO-40/50% PBS. Serial blood sampling was conducted from the jugular vein at 0.25, 0.5, 1, 2, 4, and 6 hr time points. At 0.5 h after injection, mice were euthanized, underwent hemoperfusion, and their brain tissue was harvested, homogenized and diluted 4-fold with water. Blood and brain homogenate samples were treated with acetonitrile and centrifuged. The supernatant solution was used for drug level measurement by LC/MS/MS. Pharmacokinetic parameters were calculated using Moment method analysis.

[2] = plasma, single intraperitoneal injection 30 mg/kg

concentration at 0.5 hr ([1]; brain, single intraperitoneal injection 30 mg/kg, read-out: Brain concentration at 0.5 hr): 1520 ± 140 nM
Kp at 0.5 h ([1]; brain/plasma, 0.5 hr after single intraperitoneal injection 30 mg/kg, read-out: Brain/plasma ratio): 2.06 ± 0.39
Cmax [1, 2]: 1200 ± 120 nM
Tmax [1, 2]: 15 min
half-life [1, 2]: 299 ± 98.4 min
AUC(0-t) ([1]; plasma, single intraperitoneal injection 30 mg/kg, read-out: AUC0–6 h): 1.11 ± 0.08 µM·h
concentration at 0.5 hr ([1]; plasma, single intraperitoneal injection 30 mg/kg, read-out: Plasma concentration at 0.5 hr): 750 ± 90 nM
SMILES: NC1CCC(NC2CC2c2cc(F)cc(F)c2OCc2ccccc2)CC1 (centres unmarked) [S2172]
levels of H3K4me1, H3K4me2, H3K4me3, and H3K9me2 (KINGS1): slight increase
